Experimental data from article PMC3267046 (Structure(London, England:1993), 2012).
pKd: −log10 of the molar value.

Legend:
Format in all cases: binding
nfa33440 = biological target: T1, nfa33440 (Nocardia farcinica, UniProt Q5YUF0); assay: cocrystal structure, […] Å; HSQC NMR
T1 construct: gene NFA_33440; full-length (density starting at residue 6)
T1 sequence (Q5YUF0 1-147): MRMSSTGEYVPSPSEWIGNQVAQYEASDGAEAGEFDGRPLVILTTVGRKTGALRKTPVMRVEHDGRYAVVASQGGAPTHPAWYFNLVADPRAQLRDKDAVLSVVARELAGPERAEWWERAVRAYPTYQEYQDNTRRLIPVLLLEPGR

[1] = biological target: T2, Ddn (deazaflavin-dependent nitroreductase, Rv3547) (Mycobacterium tuberculosis, UniProt P9WP15); assay: cocrystal structures (Holo-1 […] Å, Holo-2 […] Å); Trp fluorescence quenching Kd; HSQC NMR; parameters: […]; full-length Ddn / MBP-Ddn fusion (Kd)
T2 sequence (P9WP15 whole entry, the tested form may be a part): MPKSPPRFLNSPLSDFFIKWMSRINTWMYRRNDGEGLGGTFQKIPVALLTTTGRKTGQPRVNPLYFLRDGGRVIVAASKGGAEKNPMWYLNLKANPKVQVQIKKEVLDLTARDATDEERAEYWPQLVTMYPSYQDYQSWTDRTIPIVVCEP

nfa18080 = biological target: T3, nfa18080 (Nocardia farcinica, UniProt Q5YYT7); assay: crystal structure, […] Å
T3 construct: gene NFA_18080; full-length (density starts at residue 5)
T3 sequence (Q5YYT7 1-144): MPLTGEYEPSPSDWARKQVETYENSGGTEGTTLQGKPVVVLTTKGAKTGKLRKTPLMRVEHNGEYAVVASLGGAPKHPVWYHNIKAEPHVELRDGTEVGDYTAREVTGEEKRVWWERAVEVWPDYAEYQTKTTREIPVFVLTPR

[2] = biological target: T2, Ddn (deazaflavin-dependent nitroreductase, Rv3547); assay: intrinsic tryptophan fluorescence quenching; also steady-state kinetics (KM […]); parameters: full-length Ddn / MBP-Ddn fusion

Row | SMILES | cocrystal structure, 1.80 Å; HSQC NMR (nfa33440) | pKd [1] | crystal structure, 1.50 Å (nfa18080) | pKd [2]
1 | C[C@H](OP(=O)(O)OC[C@@H](O)[C@@H](O)[C@@H](O)Cn1c2nc(=O)[nH]c(=O)c-2cc2ccc(O)cc21)C(=O)N[C@@H](CCC(=O)N[C@@H](CCC(=O)O)C(=O)O)C(=O)O [F420] | a cocrystal of nfa33440 with F420 confirmed that the overall structure and coenzyme binding are very similar | 6.00 | nfa18080 from N. farcinica, was solved by X-ray crystallography in the presence of F420 | 
2 | O=[N+]([O-])c1cn2c(n1)OC[C@@H](OCc1ccc(OC(F)(F)F)cc1)C2 [PA-824, (6S)-2-nitro-6-[4-(trifluoromethoxy)benzyl]oxy-6,7-dihydro-5H-imidazo[2,1-b][1,3]oxazine] |  |  |  | 4.51
